Measurements taken from patent US20040006070A1, “Intraspinal continuous infusion of midazolam hydrochloride for the treatment of pain” (priority 2002, published 2004).
Counter-ions that a name gives are not always drawn.

Test: Toxicity of continuous intrathecal infusion in acute pain sheep: clinical symptoms, necropsy, histology
Format: in vivo
Method: The inventors have completed a toxicity and efficacy study of intrathecal midazolam hydrochloride in 15 sheep instrumented with Medtronic SynchroMed® infusion systems. The surgical procedure and the hardware used in these animals was analogous to that utilized in humans. The first sheep was tested for toxicity only (3 mg/day), and all subsequent animals tested for both toxicity and analgesic activity.
Open-label (known dose) trial: A trial with known midazolam doses was performed in the first 7 sheep. Animals were administered 3 mg/day (N=1), 5 mg/day (N=1), 10 mg/day (N=1), and 15 mg/day (N=4) for 43 days. These doses were chosen based upon previous intrathecal bolus dose studies in rats and humans, with conversion of from species to species based on cerebral spinal fluid (CSF) production rate and total CSF volume. Analgesic activity was assessed using a mechanical stimulus device which produces a stimulus of acute pain by application of force via a blunt needle applied to the shaved front foreleg of the animal. Force is applied with increasing pressure until the animal lifts its leg in response to the painful stimulus. To evaluate the analgesic effect of midazolam, response latencies were expressed as a percentage of the maximum possible effect, % MPE. The response latency is defined as follows: [formula]
On day 43 after venous blood samples were taken, animals were euthanized (Beuthanasia 1 ml/4.5 kg IV bolus injection). CSF samples were obtained for analysis (1-2 ml drawn from L-7/S-1 after a laminectomy was performed to expose the dura) of glucose, total protein, and cell differential.

[1] = double blinded sheep Chicken Hawk #87, 5 mg/day, 43 days
[2] = double blinded sheep Elmer Fudd #437, 5 mg/day, 43 days
[3] = double blinded sheep Leghorn II #815, 15 mg/day, 43 days
[4] = double blinded sheep Petunia #439, 15 mg/day, 43 days
[5] = double blinded sheep Porky #402, 5 mg/day, 43 days
[6] = double blinded sheep Roadrunner #84, 15 mg/day, 43 days
[7] = open label sheep Dot #85, 15 mg/day, 43 days
[8] = open label sheep Wacko #83, 15 mg/day, 43 days
[9] = open label sheep Yacko #91, 15 mg/day, 43 days

Cc1ncc2n1-c1ccc(Cl)cc1C(c1ccccc1F)=NC2 [Midazolam, midazolam hydrochloride]
inflammatory lesions (any sheep receiving midazolam alone in the acute pain sheep study): no significant inflammatory lesions were observed
behavioral, toxicological, or histopathologic changes related to the infusion (closed label sheep, continuous infusion 5 or 15 mg/day): did not produce any behavioral, toxicological, or histopathologic changes
Histology [1]: mild catheter reaction
Necropsy [1]: no gross lesions noted
Histology [2]: mild catheter reaction
Necropsy [2]: no gross lesions noted
Histology [3]: mild catheter reaction
Necropsy [3]: No obvious lesions where detected
Histology [4]: mild catheter reaction
Necropsy [4]: no gross lesions noted
Histology [5]: mild catheter reaction
Necropsy [5]: no gross lesions noted
Histology [6]: mild catheter reaction
Necropsy [6]: no gross lesions noted
clinical symptoms (open label sheep #457 Tazz, 15 mg/day, 43 days): No clinical symptoms
clinical symptoms (open label sheep #498 Toad, 10 mg/day, 43 days): No clinical symptoms
clinical symptoms (open label sheep #518 Sandy, 5 mg/day, 43 days): No clinical symptoms
Histology [7]: mild catheter reaction
Necropsy [7]: no gross lesions noted
Histology [8]: mild catheter reaction
Necropsy [8]: no gross lesions noted
Histology [9]: mild catheter reaction
Necropsy [9]: no gross lesions noted
behavioral, toxicological, or histopathologic changes related to the infusion (open label sheep, continuous infusion 3-15 mg/day, 43 days): did not produce any behavioral, toxicological, or histopathologic changes
